Measured values published in patent publication US12673918B2, “Small molecule RPN13 inhibitors with antitumor properties” (The Johns Hopkins University, priority 2019, dated 2026).

Key:
intracellular GSH = assay: Total GSH assay, SKOV3 cells; format: cell-based, human; settings: SKOV3, 0.5 μM, 12 hr
Method: Luciferase and GSH assays: Sub-confluent cultures of cells were transfected with 4Ub-FL or FL plasmid using Lipofectamine 2000 reagent (Life Technologies). Cells were seeded at 10,000 cells/well in 96-wells plate 48 hr post transfection and incubated with compounds or vehicle (DMSO) at the doses and times indicated. Luciferase activity in cell lysate was determined with a luciferase assay kit (Promega) according to the manufacturer's instructions. Bioluminescence was measured by using a Glomax Multidetection system (Promega). Glutathione was assayed using the Promega GSH assay kit (V6611).

OVCAR3 = settings: human

Q: With `CC(C)C[C@H](NC(=O)[C@H](Cc1ccccc1)NC(=O)c1cnccn1)B(O)O` [Bortezomib, bortezomib, reference compound] as the molecule, how does the “cellular total GSH levels” value (intracellular GSH) read?
A: The value was “profoundly reduced cellular GSH levels”.

Q: Which IC50 (OVCAR3) does the source give for `C[C@H]1/C(=C\c2ccc([N+](=O)[O-])cc2)C(=O)/C(=C/c2ccc([N+](=O)[O-])cc2)CN1C(=O)[C@@H](N)Cc1ccccc1` here?
A: Its IC50 is 69 nM.
